System: SIRT
Experiment: in vitro SIRT activity in treated cells, lysed after treatment (BioMol SIRT Activity Assay kit)
Format: cell-based
Settings: depending on the cell line; positive control
Description: Among other suitable combinations, one exemplary SIRT activating combination of B-vitamins was formulated that included a combination of vitamin B2, B1, B3, B6, B12, and B5. Using that combination, HeLa cells were separately treated in vitro for 4 hrs, along with a reference compound (here: resveratrol) as positive control, as well as individually with the respective above vitamins at a total concentrations of 0.1% (wt/vol) of culture medium. To measure SIRT activation, the cells were lysed after treatment and SIRT activity was determined using a commercially available SIRT Activity Assay kit (BioMol, Inc.; Catalog #KI-104).
Moreover, in vitro activation with the known SIRT activator resveratrol was, depending on the cell line, between about 15-120% of untreated control, making the SIRT activation with the vitamin compounds even more remarkable.
In an experiment similar to that above, FIG. 2 depicts further combinations for selected vitamin B compounds in which the columns show the results for A (Riboflavin, vitamin B2), B (Thiamine, vitamin B1), C (Niacinamide, vitamin B3), D (Pyridoxine, vitamin B6), E (Cyanocobolamin, vitamin B12), F (Ca-Panthotenate, vitamin B5), G=Blend of A-F (VSIRT), H (Pyrodoxine, vitamin B6 plus Cobalamin, vitamin B12), 0.05% each, and I (H plus Riboflavin, vitamin B2) (0.033% each). […]

Structure (SMILES): Oc1ccc(C=Cc2cc(O)cc(O)c2)cc1 [resveratrol]
- in vitro activation of SIRT: 15-120 % of untreated control
